Results as given in patent US20240376084A1, “INHIBITORS OF ALPHA-HEMOLYSIN OF STAPHYLOCOCCUS AUREUS” (Helmholtz-Zentrum Fur Infektionsforschung GmbH, priority 2021, published 2024).

Assays:
[1] = target: S. aureus Alpha hemolysin (Staphylococcus aureus, UniProt P09616); test: cell-based; conditions: A549-LDH Assay activity
[2] = target: hemolysin alpha from Staphylococcus aureus (Staphylococcus aureus, UniProt P09616); test: cell-based
Sequence of hemolysin alpha from Staphylococcus aureus (P09616 27-319 limits assumed): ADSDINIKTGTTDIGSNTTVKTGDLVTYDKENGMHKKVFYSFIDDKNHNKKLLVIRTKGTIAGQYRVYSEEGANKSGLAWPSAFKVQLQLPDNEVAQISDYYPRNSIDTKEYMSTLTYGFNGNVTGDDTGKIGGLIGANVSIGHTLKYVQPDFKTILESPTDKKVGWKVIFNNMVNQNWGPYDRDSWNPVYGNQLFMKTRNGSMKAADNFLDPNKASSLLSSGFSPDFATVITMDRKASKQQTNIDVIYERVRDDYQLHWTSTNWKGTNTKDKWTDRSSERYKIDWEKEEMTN

Sequence of S. aureus Alpha hemolysin (P09616 27-319 limits assumed): as above

Structure (SMILES) | EC50 [1] | EC50 [2] | IC50 [2]
Cc1cc2[nH]c(=O)c(=O)[nH]c2cc1S(=O)(=O)Nc1ccc(-c2ccc(F)cc2)c(Br)c1 [Compound 244, N-[3-bromo-4-(4-fluorophenyl)phenyl]-7-methyl-2,3-dioxo-1,4-dihydroquinoxaline-6-sulfonamide] | 30 to 100 nM | < 30 nM | –
Cc1cc2[nH]c(=O)c(=O)[nH]c2cc1S(=O)(=O)Nc1cc(C)c(-c2ccoc2)c(C)c1 [Compound 107, N-(4-(furan-3-yl)-3,5-dimethylphenyl)-7-methyl-2,3-dioxo-1,2,3,4-tetrahydroquinoxaline-6-sulfonamide] | 30 to 100 nM | – | 100 to 1000 nM
Cc1cc2[nH]c(=O)c(=O)[nH]c2cc1S(=O)(=O)Nc1ccc(-c2cccc(O)c2)c(Cl)c1 [Compound 386, N-[3-chloro-4-(3-hydroxyphenyl)phenyl]-7-methyl-2,3-dioxo-1,4-dihydroquinoxaline-6-sulfonamide] | < 30 nM | < 30 nM | –
COc1cc(NS(=O)(=O)c2cc3[nH]c(=O)c(=O)[nH]c3cc2C)ccc1-c1ccccc1 [Compound 81, N-(2-methoxy-[1,1′-biphenyl]-4-yl)-7-methyl-2,3-dioxo-1,2,3,4-tetrahydroquinoxaline-6-sulfonamide] | 100 to 1000 nM | – | 100 to 1000 nM
Cc1ccc(-c2ccc(NS(=O)(=O)c3cc4[nH]c(=O)c(=O)[nH]c4cc3C)cc2Cl)cc1C [Compound 266, N-[3-chloro-4-(3,4-dimethylphenyl)phenyl]-7-methyl-2,3-dioxo-1,4-dihydroquinoxaline-6-sulfonamide] | 100 to 1000 nM | 100 to 1000 nM | –
Cc1cc2[nH]c(=O)c(=O)[nH]c2cc1S(=O)(=O)Nc1cc(C)c(-c2cccc(Cl)c2)c(C)c1 [Compound 57, N-(3′-chloro-2,6-dimethyl-[1,1′-biphenyl]-4-yl)-7-methyl-2,3-dioxo-1,2,3,4-tetrahydroquinoxaline-6-sulfonamide] | 30 to 100 nM | – | 30 to 100 nM
Cc1cc2[nH]c(=O)c(=O)[nH]c2cc1S(=O)(=O)Nc1ccc(-c2ccccc2Cl)c(Cl)c1 [Compound 77, N-(2,2′-dichloro-[1,1′-biphenyl]-4-yl)-7-methyl-2,3-dioxo-1,2,3,4-tetrahydroquinoxaline-6-sulfonamide] | 100 to 1000 nM | – | 100 to 1000 nM
Cc1cc(NS(=O)(=O)c2cc3[nH]c(=O)c(=O)[nH]c3cc2C)ccc1C(F)(F)F [Compound 91, 7-methyl-N-(3-methyl-4-(trifluoromethyl)phenyl)-2,3-dioxo-1,2,3,4-tetrahydroquinoxaline-6-sulfonamide] | 100 to 1000 nM | – | 100 to 1000 nM
Cc1ccc(-c2ccc(NS(=O)(=O)c3cc4[nH]c(=O)c(=O)[nH]c4cc3Cl)cc2Cl)o1 [Compound 146, 7-chloro-N-(3-chloro-4-(5-methylfuran-2-yl)phenyl)-2,3-dioxo-1,2,3,4-tetrahydroquinoxaline-6-sulfonamide] | 1000 to 6000 nM | – | 100 to 1000 nM
Cc1cc2[nH]c(=O)c(=O)[nH]c2cc1S(=O)(=O)Nc1ccc(-c2ccc3[nH]ccc3c2)c(Cl)c1 [Compound 270, N-[3-chloro-4-(1H-indol-5-yl)phenyl]-7-methyl-2,3-dioxo-1,4-dihydroquinoxaline-6-sulfonamide] | 30 to 100 nM | 100 to 1000 nM | –
O=c1[nH]c2cc(OC3CC3)c(S(=O)(=O)Nc3ccc(OC(F)(F)F)cc3)cc2[nH]c1=O [Compound 382, 7-(cyclopropoxy)-2,3-dioxo-N-[4-(trifluoromethoxy)phenyl]-1,4-dihydroquinoxaline-6-sulfonamide] | 100 to 1000 nM | 1000 to 3500 nM | –
Cc1cc2[nH]c(=O)c(=O)[nH]c2cc1S(=O)(=O)Nc1ccc(-c2cccnc2)c(Cl)c1 [Compound 29, N-(3-chloro-4-(pyridin-3-yl)phenyl)-7-methyl-2,3-dioxo-1,2,3,4-tetrahydroquinoxaline-6-sulfonamide] | 100 to 1000 nM | – | < 30 nM
CCOC(=O)c1ccccc1-c1ccc(NS(=O)(=O)c2cc3[nH]c(=O)c(=O)[nH]c3cc2C)cc1Cl [Compound 138, ethyl 2′-chloro-4′-((7-methyl-2,3-dioxo-1,2,3,4-tetrahydroquinoxaline)-6-sulfonamido)-[1,1′-biphenyl]-2-carboxylate] | 1000 to 6000 nM | – | 1000 to 3500 nM
O=c1[nH]c2cc(Cl)c(S(=O)(=O)Nc3ccc(-c4ccsc4)c(Cl)c3)cc2[nH]c1=O [Compound 32, 7-chloro-N-(3-chloro-4-(thiophen-3-yl)phenyl)-2,3-dioxo-1,2,3,4-tetrahydroquinoxaline-6-sulfonamide] | 100 to 1000 nM | – | < 30 nM
Cc1cc2[nH]c(=O)c(=O)[nH]c2cc1S(=O)(=O)Nc1ccc(-c2cccc(C(C)C)c2)c(Cl)c1 [Compound 39, N-(2-chloro-3′-isopropyl-[1,1′-biphenyl]-4-yl)-7-methyl-2,3-dioxo-1,2,3,4-tetrahydroquinoxaline-6-sulfonamide] | 1000 to 6000 nM | – | 30 to 100 nM
Cc1cc2[nH]c(=O)c(=O)[nH]c2cc1S(=O)(=O)Nc1ccc(-c2ccc3nc[nH]c3c2)c(Cl)c1 [Compound 359, N-[4-(3H-benzimidazol-5-yl)-3-chloro-phenyl]-7-methyl-2,3-dioxo-1,4-dihydroquinoxaline-6-sulfonamide] | 30 to 100 nM | 100 to 1000 nM | –
Cc1cc2[nH]c(=O)c(=O)[nH]c2cc1S(=O)(=O)Nc1ccc(OC(F)(F)F)c(Cl)c1 [Compound 324, N-[3-chloro-4-(trifluoromethoxy)phenyl]-7-methyl-2,3-dioxo-1,4-dihydroquinoxaline-6-sulfonamide] | 30 to 100 nM | 30 to 100 nM | –
Cc1cc2[nH]c(=O)c(=O)[nH]c2cc1S(=O)(=O)Nc1ccc(-c2ccc(OC(C)C)nc2)c(Cl)c1 [Compound 291, N-[3-chloro-4-(6-isopropoxy-3-pyridyl)phenyl]-7-methyl-2,3-dioxo-1,4-dihydroquinoxaline-6-sulfonamide] | 100 to 1000 nM | 100 to 1000 nM | –
CCCc1ccc(NS(=O)(=O)c2cc3[nH]c(=O)c(=O)[nH]c3cc2F)cc1 [Compound 87, 7-fluoro-2,3-dioxo-N-(4-propylphenyl)-1,2,3,4-tetrahydroquinoxaline-6-sulfonamide] | 30 to 100 nM | – | 100 to 1000 nM
Cc1cc2[nH]c(=O)c(=O)[nH]c2cc1S(=O)(=O)Nc1ccc(-c2ccccc2CO)c(Cl)c1 [Compound 78, N-(2-chloro-2′-(hydroxymethyl)-[1,1′-biphenyl]-4-yl)-7-methyl-2,3-dioxo-1,2,3,4-tetrahydroquinoxaline-6-sulfonamide] | 100 to 1000 nM | – | 100 to 1000 nM
COc1ccccc1-c1ccc(NS(=O)(=O)c2cc3[nH]c(=O)c(=O)[nH]c3cc2C)cc1 [Compound 114, N-(2′-methoxy-[1,1′-biphenyl]-4-yl)-7-methyl-2,3-dioxo-1,2,3,4-tetrahydroquinoxaline-6-sulfonamide] | 100 to 1000 nM | – | 100 to 1000 nM
